Measurements reported in PMC7861629 (Bosnian Journal of Basic Medical Sciences, 2021).

What was measured:
[1] = rat
Method: The weight of the pieces applied was 25.2 ± 1.6 mg (mean ± standard deviation [SD]) and the amount of vancomycin in the collagen sponge pieces was 11.2 ± 0.7 mg (mean ± SD). For placebo group (n = 6), a 10 mm × 10 mm piece of placebo-containing collagen sponge was applied. The pocket on the sham surgery side was sutured with no sponge so as to provide for a control.
We administered 7.5 mg of vancomycin intraperitoneally to rats accompanied by a similar induction of s.c. infection; we measured the plasma levels in the same way as we did for the active arm.
Blood samples (volume, 0.5 mL) for determination of vancomycin and haptoglobin levels were drawn from the jugular vein into a 0.5 mL heparinized syringe under isoflurane anesthesia. Samples were drawn from three animals in vancomycin group 0.5, 1, 2, and 4 h following inoculation on the 1st day to determine vancomycin and haptoglobin levels. Samples were also taken from all animals in placebo group on the 1st day 2 h following inoculation to determine haptoglobin level only. Samples from four animals in vancomycin group and two animals in placebo group were drawn on the 1st, 2nd, and 3rd day following inoculation. The final sample was drawn intracardially upon termination on day 4 following inoculation. The samples were centrifuged (12,000 rpm, 2 min) and the samples from days 1, 2, and 3 following inoculation were frozen at -20°C until analyzed. Vancomycin concentration in the blood as well as haptoglobin level (rat acute phase marker) were determined using a nephelometric method (Beckman Coulter, Indianapolis, IN, USA).

[2] = children, 1000 mg vancomycin powder during spinal deformity surgery; cited from earlier work
Method: Following the application of 1000 mg of vancomycin powder during sur ...

CN[C@H](CC(C)C)C(=O)N[C@H]1C(=O)N[C@@H](CC(N)=O)C(=O)N[C@H]2C(=O)N[C@H]3C(=O)N[C@H](C(=O)N[C@H](C(=O)O)c4cc(O)cc(O)c4-c4cc3ccc4O)[C@H](O)c3ccc(c(Cl)c3)Oc3cc2cc(c3O[C@@H]2O[C@H](CO)[C@@H](O)[C@H](O)[C@H]2O[C@H]2C[C@](C)(N)[C@H](O)[C@H](C)O2)Oc2ccc(cc2Cl)[C@H]1O [vancomycin]
AUC ([1]; 7.5 mg vancomycin i.p., calculated from obtained levels): 87.71 µg·h/mL | vancomycin level after 24 h ([1]; 7.5 mg vancomycin i.p., detected in one animal only, nephelometric method): 0.2 mg/L | expected AUC after 11.2 mg ([1]; i.p., extrapolated from 7.5 mg dose to the sponge dose): 130.9 µg·h/mL | vancomycin level in fluid drained by subfascial drain, day 0 [2]: 403 mg/L | vancomycin level in fluid drained by subfascial drain, day 1 [2]: 251 mg/L | vancomycin level in fluid drained by subfascial drain, day 2 [2]: 115 mg/L | vancomycin level in plasma, day 0 [2]: 2.5 mg/L | vancomycin level in plasma, day 1 [2]: 1.9 mg/L | vancomycin level in plasma, day 2 [2]: 1.1 mg/L
